From patent US20070232528A1, “Formulation comprising histone deacetylase inhibitors” (priority 2004, published 2007)
Where “and” joins values, the source holds several entries; their conditions need not be identical. Equal values may be shown once. Read-outs that look alike come from different tables or passages of the source.

Columns and labels:
HDAC 1 = target: T1, HDAC 1 (Homo sapiens, UniProt Q13547); assay: in vitro HDAC assay with recombinant HDAC proteins (Fluor de Lys substrate); type: biochemical; settings: recombinant protein purified from High 5 insect cells; read-out: IC50 for HDAC 1 (class I)
T1 construct: made in house; host or cells: High5 insect cells
T1 sequence (Q13547 whole entry): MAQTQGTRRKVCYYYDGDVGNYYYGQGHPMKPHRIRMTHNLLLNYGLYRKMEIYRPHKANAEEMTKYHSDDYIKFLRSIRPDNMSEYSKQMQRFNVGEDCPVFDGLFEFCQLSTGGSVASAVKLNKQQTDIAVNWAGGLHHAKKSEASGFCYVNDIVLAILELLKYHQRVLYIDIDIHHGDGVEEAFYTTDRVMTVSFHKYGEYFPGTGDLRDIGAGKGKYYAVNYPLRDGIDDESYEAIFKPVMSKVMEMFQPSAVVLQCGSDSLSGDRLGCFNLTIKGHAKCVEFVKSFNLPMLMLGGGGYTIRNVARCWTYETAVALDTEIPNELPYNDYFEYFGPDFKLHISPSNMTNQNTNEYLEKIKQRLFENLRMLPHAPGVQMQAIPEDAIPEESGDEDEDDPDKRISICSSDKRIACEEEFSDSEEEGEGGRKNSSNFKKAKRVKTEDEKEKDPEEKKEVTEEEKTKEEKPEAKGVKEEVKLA
From the text: (§1) IC50 values may be calculated from dose-response curves. […] Biochem J. Aug. 15, 2000;350 Pt 1:199-205.

HDAC 6 = HDAC 6 (Homo sapiens, UniProt Q9UBN7); assay: biochemical
Chain of HDAC 6 (Q9UBN7 whole entry): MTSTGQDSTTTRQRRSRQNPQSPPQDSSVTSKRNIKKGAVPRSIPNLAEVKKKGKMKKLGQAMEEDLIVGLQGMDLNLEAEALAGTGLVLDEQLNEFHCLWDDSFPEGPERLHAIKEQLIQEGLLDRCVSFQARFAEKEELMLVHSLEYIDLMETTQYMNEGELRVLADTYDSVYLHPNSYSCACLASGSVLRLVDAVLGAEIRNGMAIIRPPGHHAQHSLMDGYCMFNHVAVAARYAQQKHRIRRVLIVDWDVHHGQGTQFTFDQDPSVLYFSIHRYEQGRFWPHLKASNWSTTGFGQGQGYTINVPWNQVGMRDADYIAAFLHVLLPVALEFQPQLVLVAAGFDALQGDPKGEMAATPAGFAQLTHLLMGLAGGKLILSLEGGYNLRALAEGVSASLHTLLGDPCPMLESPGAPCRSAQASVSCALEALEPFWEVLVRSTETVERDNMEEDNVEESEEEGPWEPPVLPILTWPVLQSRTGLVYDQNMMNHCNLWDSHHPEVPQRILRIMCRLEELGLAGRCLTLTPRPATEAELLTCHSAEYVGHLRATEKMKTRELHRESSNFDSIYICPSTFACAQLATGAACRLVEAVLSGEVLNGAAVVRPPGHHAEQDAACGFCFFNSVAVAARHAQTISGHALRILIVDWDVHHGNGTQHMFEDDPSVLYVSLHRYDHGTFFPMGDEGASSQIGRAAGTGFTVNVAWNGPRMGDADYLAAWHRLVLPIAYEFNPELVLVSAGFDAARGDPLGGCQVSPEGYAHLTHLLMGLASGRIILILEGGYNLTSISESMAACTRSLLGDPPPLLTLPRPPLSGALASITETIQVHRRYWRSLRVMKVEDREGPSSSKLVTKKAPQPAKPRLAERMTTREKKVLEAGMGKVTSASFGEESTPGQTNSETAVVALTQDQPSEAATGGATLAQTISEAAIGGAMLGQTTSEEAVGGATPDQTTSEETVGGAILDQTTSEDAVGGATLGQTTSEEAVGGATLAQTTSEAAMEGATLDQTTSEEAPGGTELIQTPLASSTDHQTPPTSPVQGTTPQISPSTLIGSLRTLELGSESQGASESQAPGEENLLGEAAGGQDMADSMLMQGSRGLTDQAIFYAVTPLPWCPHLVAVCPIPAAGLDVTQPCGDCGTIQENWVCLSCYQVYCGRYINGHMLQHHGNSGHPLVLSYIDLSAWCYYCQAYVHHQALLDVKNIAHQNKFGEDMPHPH
From the text: (§2) in vitro HDAC assay for determination of IC50 values: The determination of histone deacetylase activity in recombinant HDAC proteins derived from expression in High5 insect cells is based on the specific deacetylation of an artificial substrate (Fluor de Lys, Biomol). The substrate turn over may be detected and quantified by fluorometry. By addition of a HDAC inhibitor the hydrolysis of the substrate is constrained resulting in a decreased fluorometric signal. IC50 values may be calculated from dose-response curves. The assay is separated in two steps: in the first step the substrate (Fluor de Lys/Biomol KI-104) is hydrolysed by histone deacetylases. In step two HDAC activity is terminated and the fluorophore is activated by the addition of a developer (Developer/Biomol KI-105). […] 25 μl substrate (1:100 dilution in reaction buffer) per well are added to start the reaction. A negative control without histone deacetylase activity and a positive control without HDAC inhibitor are treated likewise. The reaction is stopped after 15-60 min. by adding 50 μl developer (1:20 dilution in reaction buffer). After another 15 min. incubation time at room temperature the fluorescence signal is stable for 60 min and may be detected by a fluorescence reader (excitation filter: 390 nm, emission filter: 460 nm). […]

HDAC 8 (Homo sapiens) = assay: biochemical
Chain of HDAC 8 (Homo sapiens) (Q9UBN7 whole entry): as above
From the text: as §2

HDAC class I = target: T2, HDAC class I (Homo sapiens, UniProt Q13547); assay: in vitro HDAC assay, IC50 stated for the enzyme class; type: biochemical; settings: class I enzyme inhibition
T2 construct: made in house; host or cells: High5 insect cells
T2 sequence (Q13547 whole entry): as the sequence (Q13547 whole entry) above
From the text: as §1

[1] = system: PC3 prostate carcinoma cells; assay: PC-3 mouse xenograft model; type: in vivo
Protocol: 24 athymic Nu/Nu^−/− mice were injected with 1×10^6 PC3 prostate carcinoma cells in 100 μl PBS into the right flank (8 animals per group). Tumors were allowed to grow for 4 days. Animals were treated with PBS (control), 2×200 mg/kg/d or 2×400 mg/kg/d, respectively, from day 5 until day 21. Tumor volumes were measured every 3-4 days.
Mouse Xenograft Model: 24 athymic Nu/Nu^−/− (Harlan) mice were injected with 1×10^6 PC3 prostate carcinoma cells in 100 μl PBS into the right flank (8 animals per group). Tumors were allowed to grow for 4 days. […] Tumor volumes were measured every […].

Colo320DM cell line = assay: SRB proliferation assay, interval treatment; type: cell-based; settings: Homo sapiens, COLO 320DM, 1 mM VPA, read-out: growth inhibition
Protocol: (§3) SRB proliferation assay: The reduction in cellular biomass was measured by SRB-assay. For this assay cells were seeded in 96 well culture dishes at densities between 3000 and 8000 cells per well. […] Cells were fixed with cold Trichloracetat (TCA) producing a final TCA concentration of 10%. After 1 hour of incubation at 4° C. the cells were washed five times with water and air dried. Fixed cells were stained for 30 minutes with 0.4% (wt/vol) Sulforhodamine B (SRB) dissolved in 1% acetic acid and washed four times with 1% acetic acid to remove unbound dye. After air drying bound dye was solubilized with 10 mM unbuffered Tris base (pH 10.5) for 5 minutes. Optical densities (OD) were read on a Molecular Devices Versa Max tunable microplate reader at 520-550 nm. Four test wells for each dose-response were set in parallel with 12 control wells per cell line. Measurement of the cell population density at time 0 (T0; the time at which the drug was added) was also made from 12 reference wells of cells fixed with TCA just prior to drug addition to the test plates. Background OD of complete medium with 5% FBS fixed and stained as described above was also determined in 12 separate wells. From the unprocessed OD data from each microtiter plate the background OD measurements (i.e. OD of complete medium plus stain and OD of cells at T0) were subtracted thus giving the reduction of cellular biomass of the cells.

PC-3 cell line = assay: SRB proliferation assay, interval treatment; type: cell-based; settings: Homo sapiens, read-out: growth inhibition
Protocol: as §3

HDAC 2 = assay: Western blot of peripheral blood cells of patients, phase I/II trial; type: in vivo, human; settings: patients with serum levels above the therapeutic plasma concentration
Protocol: (§4) Blood samples were taken before and 6 h, 24 h as well as 48 h after treatment start.
(§5) Whole cell extracts were prepared by lysis of cells in RIPA buffer plus protease inhibitors for denaturing SDS gel electrophoresis on a 12% denaturing polyacrylamide gel. Acetylated histones H3 and H4 and marker protein HDAC 2 were detected by Western blot analysis using an anti-acetyl Histone H3 antibody (Upstate, #06-942), an anti-acetyl Histone H4 antibody (clone T25; patent application EP 02.021984.6), and an anti-HDAC 2 antibody (SCBT, SC-7899). As an equal loading control PVDV membranes were stained with Coomassie.

Histone H3 and H4 = assay: as above; type: in vivo, human
Protocol: as §4, §5

Histone H3 in 293T cells = assay: Western blot of 293T cells treated by release-pattern schemes; type: cell-based
Protocol: Whole cell extracts were prepared by lysis of cells in RIPA buffer plus protease inhibitors for denaturing SDS gel electrophoresis on a 12% denaturing polyacrylamide gel. Acetylated histones H3 were detected by Western blot analysis using an anti-acetylated H3 antibody (Upstate, #06-942).

- IC50 (HDAC 1): 200 µM and ~200 µM
- IC50 (HDAC 6): 1100 µM
- IC50 (HDAC 8 (Homo sapiens)): ~1100 µM
- IC50 (HDAC class I): ~200 µM and 200 µM
Structure (SMILES): CCCC(CCC)C(=O)O [VPA, 2-propyl-pentanoic acid]
- anti-tumoral effect ([1]; 200 mg/kg/d twice daily, day 5 until day 21): no anti-tumoral effect
- PC-3 tumor volume reduction ([1]; 400 mg/kg/d twice daily, day 5 until day 21, compared to PBS control): > 25%
- inhibition at 1000 µM (Colo320DM cell line; 2×8 hours exposure, 40 h treatment free interval ("8 h d")): 27%
- inhibition at 1000 µM (Colo320DM cell line; 2×20 hours exposure, 26 h treatment free interval ("20 h d")): 57%
- inhibition at 1000 µM (Colo320DM cell line; 66 h, continuous exposure 66 h): 80%
- inhibition at 1000 µM (PC-3 cell line; PC-3, 66 h, PC3, 1 mM VPA, continuous exposure 66 h): 57%
- inhibition at 1000 µM (PC-3 cell line; PC-3, PC3, 1 mM VPA, 2×8 hours exposure, 40 h treatment free interval ("8 h d")): 26%
- inhibition at 1000 µM (PC-3 cell line; PC-3, PC3, 1 mM VPA, 2×20 hours exposure, 26 h treatment free interval ("20 h d")): 43%
- regulation of the marker protein HDAC 2 (HDAC 2): down regulation
- correlation of VPA serum peak levels with induction of histone hyperacetylation (Histone H3 and H4; peripheral blood cells before and 6 h, 24 h, 48 h after treatment start, intravenous VPA): clear correlation
- histone H3 and H4 hyperacetylation (Histone H3 and H4; peripheral blood cells, patients with serum levels above the therapeutic plasma concentration): could be detected
- degree of histone hyperacetylation (Histone H3 in 293T cells; VPA above IC50 for class I HDAC, exposure 6 h, 15 h, 24 h): strongly enhanced when the period of exposure is prolonged
- degree of histone hyperacetylation induction, "fast release" or "slow release" exposure each on their own compared with bi-phasic PEAC exposure (Histone H3 in 293T cells; Western blot): less effective
